Measurements as given in patent US20250129027A1 (APOGEE PHARMACEUTICALS, INC., priority 2023, published 2025).

What was measured:
[1] = molecular target: human recombinant MAGL (Homo sapiens (Human), UniProt Q99685); assay: In vitro inhibition of MAGL activity (inhibitor screening kit, 4-nitrophenylacetate); assay type: biochemical; details: human recombinant MAGL
Method in brief: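 Colorimetric kit assay: recombinant human MAGL hydrolyses 4-nitrophenylacetate to 4-nitrophenol, read by absorbance at 405-412 nm. Inhibition given as percentage of signal in treated versus untreated MAGL control.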

[2] = molecular target: human recombinant FAAH (Homo sapiens (Human), UniProt O00519); assay: In vitro inhibition of FAAH activity (fluorescent inhibitor screening kit, AMC arachidonoyl amide); assay type: biochemical; details: human recombinant FAAH; read-out: Inhibition on FAAH activity (IC50)
Method in brief: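 Fluorogenic kit assay: AMC arachidonoyl amide is cleaved by human recombinant FAAH, read at 340-360/450-465 nm. Percent inhibition versus non-treated control; IC50 values derived from multiple compound concentrations where tested.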

Sequence of human recombinant MAGL (Q99685 whole entry): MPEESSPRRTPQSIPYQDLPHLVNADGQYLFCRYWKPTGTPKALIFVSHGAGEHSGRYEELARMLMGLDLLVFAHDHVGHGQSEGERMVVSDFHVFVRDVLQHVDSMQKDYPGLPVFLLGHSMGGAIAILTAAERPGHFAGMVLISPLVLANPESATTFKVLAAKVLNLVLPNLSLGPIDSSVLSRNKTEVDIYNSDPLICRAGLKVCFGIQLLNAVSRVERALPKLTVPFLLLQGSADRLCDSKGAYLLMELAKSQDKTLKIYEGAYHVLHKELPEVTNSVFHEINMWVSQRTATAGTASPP
Sequence of human recombinant FAAH (O00519 whole entry): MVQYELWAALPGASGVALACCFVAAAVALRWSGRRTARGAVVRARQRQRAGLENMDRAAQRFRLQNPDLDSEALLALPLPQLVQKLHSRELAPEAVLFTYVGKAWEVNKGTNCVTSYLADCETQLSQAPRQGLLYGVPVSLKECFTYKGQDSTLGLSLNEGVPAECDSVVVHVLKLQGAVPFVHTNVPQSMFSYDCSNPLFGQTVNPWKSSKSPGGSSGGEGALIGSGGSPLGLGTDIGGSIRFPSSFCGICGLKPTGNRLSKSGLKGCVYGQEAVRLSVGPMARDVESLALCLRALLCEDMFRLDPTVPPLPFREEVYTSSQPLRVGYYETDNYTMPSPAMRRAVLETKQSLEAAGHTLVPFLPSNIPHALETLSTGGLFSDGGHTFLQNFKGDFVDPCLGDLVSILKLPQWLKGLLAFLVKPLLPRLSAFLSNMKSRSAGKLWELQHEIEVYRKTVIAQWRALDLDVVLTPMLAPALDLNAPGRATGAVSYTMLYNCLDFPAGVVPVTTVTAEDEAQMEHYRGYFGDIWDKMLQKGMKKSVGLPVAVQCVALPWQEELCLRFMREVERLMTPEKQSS

SMILES | IC50 [1] | IC50 [2]
CCCCCCCCNC(=O)Oc1ccc(OC(F)(F)F)c(-c2cncc(-c3nnco3)c2)c1 [Example 199, 3-(5-(1,3,4-oxadiazol-2-yl)pyridin-3-yl)-4-(trifluoromethoxy)phenyl octylcarbamate] | 1000 to 10000 nM | 10 to 100 nM
O=C(NC1CCCCC1)Oc1ccc(OC(F)(F)F)c(-c2cncc(-c3nnco3)c2)c1 [Example 200, 3-(5-(1,3,4-oxadiazol-2-yl)pyridin-3-yl)-4-(trifluoromethoxy)phenyl cyclohexylcarbamate] | > 10000 nM | 100 to 1000 nM
CC1CCC(NC(=O)Oc2ccc(OC(F)(F)F)c(-c3cncc(-c4nnco4)c3)c2)CC1 (stereo not shown) [Example 201] | > 1000 nM | 100 to 1000 nM
O=C(NC1CCCCCC1)Oc1ccc(OC(F)(F)F)c(-c2cncc(-c3nnco3)c2)c1 [Example 202, 3-(5-(1,3,4-oxadiazol-2-yl)pyridin-3-yl)-4-(trifluoromethoxy)phenyl cycloheptylcarbamate] | > 10000 nM | 100 to 1000 nM
O=C(Nc1ccccc1)Oc1ccc(OC(F)(F)F)c(-c2cncc(-c3nnco3)c2)c1 [Example 203, 3-(5-(1,3,4-oxadiazol-2-yl)pyridin-3-yl)-4-(trifluoromethoxy)phenyl phenylcarbamate] | > 10000 nM | > 1000 nM
O=C(NCC1CCCCC1)Oc1cccc(-c2cncc(-c3ncno3)c2)c1 [Example 204, 3-(5-(1,2,4-oxadiazol-5-yl)pyridin-3-yl)phenyl (cyclohexylmethyl)carbamate] | > 10000 nM | 10 to 100 nM
O=C(NC1CCCCC1)Oc1cccc(-c2cncc(-c3ncno3)c2)c1 [Example 205, 3-(5-(1,2,4-oxadiazol-5-yl)pyridin-3-yl)phenyl cyclohexylcarbamate] | > 10000 nM | 10 to 100 nM
O=C(NC1CCCCCC1)Oc1cccc(-c2cncc(-c3ncno3)c2)c1 [Example 206, 3-(5-(1,2,4-oxadiazol-5-yl)pyridin-3-yl)phenyl cycloheptylcarbamate] | > 10000 nM | 10 to 100 nM
CCCCCCCCNC(=O)Oc1cccc(-c2cncc(-c3nncs3)c2)c1 [Example 207, 3-(5-(1,3,4-thiadiazol-2-yl)pyridin-3-yl)phenyl octylcarbamate] | ~10000 nM | 1 to 10 nM
O=C(NCC1CCCCC1)Oc1cccc(-c2cncc(-c3nncs3)c2)c1 [Example 208, 3-(5-(1,3,4-thiadiazol-2-yl)pyridin-3-yl)phenyl (cyclohexylmethyl)carbamate] | > 10000 nM | 10 to 100 nM
O=C(NCc1ccccc1)Oc1cccc(-c2cncc(-c3nncs3)c2)c1 [Example 209, 3-(5-(1,3,4-thiadiazol-2-yl)pyridin-3-yl)phenyl benzylcarbamate] | > 10000 nM | ~100 nM
O=C(NC1CCCC1)Oc1cccc(-c2cncc(-c3nncs3)c2)c1 [Example 210, 3-(5-(1,3,4-thiadiazol-2-yl)pyridin-3-yl)phenyl cyclopentylcarbamate] | > 10000 nM | ~100 nM
O=C(NC1CCCCC1)Oc1cccc(-c2cncc(-c3nncs3)c2)c1 [Example 211, 3-(5-(1,3,4-thiadiazol-2-yl)pyridin-3-yl)phenyl cyclohexylcarbamate] | > 10000 nM | > 1000 nM
O=C(NC1CCCCCC1)Oc1cccc(-c2cncc(-c3nncs3)c2)c1 [Example 212, 3-(5-(1,3,4-thiadiazol-2-yl)pyridin-3-yl)phenyl cycloheptylcarbamate] | > 10000 nM | 10 to 100 nM
CCCCCCCCNC(=O)Oc1ccc(OC)c(-c2cncc(-c3nncs3)c2)c1 [Example 213, 3-(5-(1,3,4-thiadiazol-2-yl)pyridin-3-yl)-4-methoxyphenyl octylcarbamate] | ~10000 nM | 1 to 10 nM
COc1ccc(OC(=O)NCC2CCCCC2)cc1-c1cncc(-c2nncs2)c1 [Example 214, 3-(5-(1,3,4-thiadiazol-2-yl)pyridin-3-yl)-4-methoxyphenyl (cyclohexylmethyl)carbamate] | > 10000 nM | 10 to 100 nM
COc1ccc(OC(=O)NCc2ccccc2)cc1-c1cncc(-c2nncs2)c1 [Example 215, 3-(5-(1,3,4-thiadiazol-2-yl)pyridin-3-yl)-4-methoxyphenyl benzylcarbamate] | > 10000 nM | 100 to 1000 nM
COc1ccc(OC(=O)NC2CCCC2)cc1-c1cncc(-c2nncs2)c1 [Example 216, 3-(5-(1,3,4-thiadiazol-2-yl)pyridin-3-yl)-4-methoxyphenyl cyclopentylcarbamate] | > 10000 nM | 100 to 1000 nM
COc1ccc(OC(=O)NC2CCCCCC2)cc1-c1cncc(-c2nncs2)c1 [Example 218, 3-(5-(1,3,4-thiadiazol-2-yl)pyridin-3-yl)-4-methoxyphenyl cycloheptylcarbamate] | > 10000 nM | 10 to 100 nM

SMILES | IC50 [1] | IC50 [2]
CCCCCCCCNC(=O)Oc1cccc(-c2cncc(-c3ncn[nH]3)c2)c1 [Example 219, 3-(5-(1H-1,2,4-triazol-5-yl)pyridin-3-yl)phenyl octyl carbamate] | ~10000 nM | 1 to 10 nM
O=C(NCC1CCCCC1)Oc1cccc(-c2cncc(-c3ncn[nH]3)c2)c1 [Example 220, 3-(5-(1H-1,2,4-triazol-5-yl)pyridin-3-yl)phenyl (cyclohexylmethyl)carbamate] | ~10000 nM | 10 to 100 nM
O=C(NCc1ccccc1)Oc1cccc(-c2cncc(-c3ncn[nH]3)c2)c1 [Example 221, 3-(5-(1H-1,2,4-triazol-5-yl)pyridin-3-yl)phenyl benzyl carbamate] | > 10000 nM | 100 to 1000 nM
O=C(NCc1ccc2ccccc2c1)Oc1cccc(-c2cncc(-c3ncn[nH]3)c2)c1 [Example 222, 3-(5-(1H-1,2,4-triazol-5-yl)pyridin-3-yl)phenyl (naphthalen-2-ylmethyl)carbamate] | ~10000 nM | 10 to 100 nM
O=C(NC1CCCC1)Oc1cccc(-c2cncc(-c3ncn[nH]3)c2)c1 [Example 223, 3-(5-(1H-1,2,4-triazol-5-yl)pyridin-3-yl)phenyl cyclopentylcarbamate] | > 10000 nM | 100 to 1000 nM
O=C(NC1CCCCC1)Oc1cccc(-c2cncc(-c3ncn[nH]3)c2)c1 [Example 224, 3-(5-(1H-1,2,4-triazol-5-yl)pyridin-3-yl)phenyl cyclohexylcarbamate] | > 10000 nM | 100 to 1000 nM
CCCCCCCCNC(=O)Oc1ccc(O)c(-c2cncc(-c3ncn[nH]3)c2)c1 [Example 226, 3-(5-(1H-1,2,4-triazol-5-yl)pyridin-3-yl)-4-hydroxyphenyl octyl carbamate] | > 10000 nM | 1 to 10 nM
O=C(NCC1CCCCC1)Oc1ccc(O)c(-c2cncc(-c3ncn[nH]3)c2)c1 [Example 227, 3-(5-(1H-1,2,4-triazol-5-yl)pyridin-3-yl)-4-hydroxyphenyl (cyclohexyl methyl) carbamate] | > 10000 nM | 100 to 1000 nM
O=C(NCc1ccccc1)Oc1ccc(O)c(-c2cncc(-c3ncn[nH]3)c2)c1 [Example 228, 3-(5-(1H-1,2,4-triazol-5-yl)pyridin-3-yl)-4-hydroxyphenyl benzylcarbamate] | > 10000 nM | 100 to 1000 nM
O=C(NC1CCCC1)Oc1ccc(O)c(-c2cncc(-c3ncn[nH]3)c2)c1 [Example 229, 3-(5-(1H-1,2,4-triazol-5-yl)pyridin-3-yl)-4-hydroxyphenyl cyclopentylcarbamate] | > 10000 nM | 10 to 100 nM
O=C(NC1CCCCC1)Oc1ccc(O)c(-c2cncc(-c3ncn[nH]3)c2)c1 [Example 230, 3-(5-(1H-1,2,4-triazol-5-yl)pyridin-3-yl)-4-hydroxyphenyl cyclohexyl carbamate] | > 10000 nM | 100 to 1000 nM
CCCCCCCCNC(=O)Oc1ccc(OC)c(-c2cncc(-c3ncn[nH]3)c2)c1 [Example 232, 3-(5-(1H-1,2,4-triazol-5-yl)pyridin-3-yl)-4-methoxyphenyl octylcarbamate] | ~10000 nM | 10 to 100 nM
COc1ccc(OC(=O)NCC2CCCCC2)cc1-c1cncc(-c2ncn[nH]2)c1 [Example 233, 3-(5-(1H-1,2,4-triazol-5-yl)pyridin-3-yl)-4-methoxyphenyl (cyclohexylmethyl) carbamate] | ~10000 nM | 100 to 1000 nM
COc1ccc(OC(=O)NCc2ccccc2)cc1-c1cncc(-c2ncn[nH]2)c1 [Example 234, 3-(5-(1H-1,2,4-triazol-5-yl)pyridin-3-yl)-4-methoxyphenyl benzyl carbamate] | > 10000 nM | > 1000 nM
COc1ccc(OC(=O)NC2CCCC2)cc1-c1cncc(-c2ncn[nH]2)c1 [Example 235, 3-(5-(1H-1,2,4-triazol-5-yl)pyridin-3-yl)-4-methoxyphenyl cyclopentylcarbamate] | > 10000 nM | 100 to 1000 nM
COc1ccc(OC(=O)NC2CCCCC2)cc1-c1cncc(-c2ncn[nH]2)c1 [Example 236, 3-(5-(1H-1,2,4-triazol-5-yl)pyridin-3-yl)-4-methoxyphenyl cyclohexyl carbamate] | > 10000 nM | 100 to 1000 nM
COc1ccc(OC(=O)NC2CCCCCC2)cc1-c1cncc(-c2ncn[nH]2)c1 [Example 237, 3-(5-(1H-1,2,4-triazol-5-yl)pyridin-3-yl)-4-methoxyphenyl cycloheptylcarbamate] | > 10000 nM | 100 to 1000 nM
CCCCCCCCNC(=O)Oc1cccc(-c2cncc(-c3nnn[nH]3)c2)c1 [Example 238, 3-(5-(1H-tetrazol-5-yl)pyridin-3-yl)phenyl octylcarbamate] | ~10000 nM | 10 to 100 nM
O=C(NCC1CCCCC1)Oc1cccc(-c2cncc(-c3nnn[nH]3)c2)c1 [Example 239, 3-(5-(1H-tetrazol-5-yl)pyridin-3-yl)phenyl (cyclohexylmethyl)carbamate] | > 10000 nM | > 1000 nM
